Data published in ChEMBL document CHEMBL4414679, “Discovery of 4,6-pyrimidinediamine derivatives as novel dual EGFR/FGFR inhibitors aimed EGFR/FGFR1-positive NSCLC” (Eur J Med Chem, 2020).
Active and inactive are the calls of the source. The rule behind the calls is not given here.

Assays:
PC-9 [1] = test: Antiproliferative activity against human PC9 cells incubated for 48 hrs by MTT assay; assay type: functional, cell-based; conditions: PC-9, 48 h
NCI-H1581 [2] = test: Antiproliferative activity against human NCI-H1581 cells incubated for 48 hrs by MTT assay; assay type: functional, cell-based; conditions: NCI-H1581, 48 h
[3] = target: T1, Epidermal growth factor receptor (Homo sapiens, UniProt P00533); test: Inhibition of N-terminal GST-tagged human EGFR cytoplasmic domain (669-1210 AA) expressed in baculovirus at 10 uM using FAM-labelled peptide as substrate pre-incubated for 10 mins followed by substrate addition by mobility shift assay relative to control
T1 sequence (P00533 whole entry, the tested form may be a part): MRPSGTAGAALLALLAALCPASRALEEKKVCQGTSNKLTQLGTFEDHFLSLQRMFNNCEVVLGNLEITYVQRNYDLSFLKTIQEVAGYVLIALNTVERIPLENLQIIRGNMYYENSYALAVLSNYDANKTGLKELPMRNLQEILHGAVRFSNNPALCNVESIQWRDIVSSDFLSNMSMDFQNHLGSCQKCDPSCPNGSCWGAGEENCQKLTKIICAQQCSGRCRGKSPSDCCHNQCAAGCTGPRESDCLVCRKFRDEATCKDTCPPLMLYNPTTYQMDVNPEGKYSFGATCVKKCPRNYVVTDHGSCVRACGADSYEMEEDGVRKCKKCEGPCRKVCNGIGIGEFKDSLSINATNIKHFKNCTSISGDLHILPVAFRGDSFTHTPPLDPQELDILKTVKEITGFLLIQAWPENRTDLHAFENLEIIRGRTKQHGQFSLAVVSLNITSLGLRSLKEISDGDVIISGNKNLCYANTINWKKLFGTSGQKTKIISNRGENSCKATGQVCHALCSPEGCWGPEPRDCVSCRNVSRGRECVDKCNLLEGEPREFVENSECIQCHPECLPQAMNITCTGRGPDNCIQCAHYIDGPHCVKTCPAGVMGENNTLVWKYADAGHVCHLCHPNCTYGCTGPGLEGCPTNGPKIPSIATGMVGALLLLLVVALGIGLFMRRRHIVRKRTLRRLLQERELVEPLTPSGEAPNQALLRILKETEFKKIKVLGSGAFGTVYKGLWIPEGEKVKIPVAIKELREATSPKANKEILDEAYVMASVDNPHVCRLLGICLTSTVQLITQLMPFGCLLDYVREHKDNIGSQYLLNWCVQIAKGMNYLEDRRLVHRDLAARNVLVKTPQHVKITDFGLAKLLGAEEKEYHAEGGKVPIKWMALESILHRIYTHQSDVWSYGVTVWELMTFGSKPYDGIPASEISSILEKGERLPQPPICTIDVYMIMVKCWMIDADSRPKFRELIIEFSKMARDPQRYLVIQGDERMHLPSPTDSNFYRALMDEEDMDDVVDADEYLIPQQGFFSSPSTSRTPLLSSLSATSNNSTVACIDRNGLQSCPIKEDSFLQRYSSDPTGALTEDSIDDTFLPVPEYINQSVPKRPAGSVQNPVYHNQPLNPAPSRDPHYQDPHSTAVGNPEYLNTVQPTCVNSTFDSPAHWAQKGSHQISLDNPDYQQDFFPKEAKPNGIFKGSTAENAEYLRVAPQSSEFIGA

HCC827 [4] = test: Antiproliferative activity against human HCC827 cells incubated for 48 hrs by MTT assay; assay type: functional, cell-based; conditions: HCC827, 48 h
[5] = target: T1, Epidermal growth factor receptor; test: Inhibition of N-terminal GST-tagged human EGFR (d746-750AA) expressed in baculovirus at 10 uM using FAM-labelled peptide as substrate pre-incubated for 10 mins followed by substrate addition by mobility shift assay relative to control
NCI-H1581 [6] = test: Antiproliferative activity against human NCI-H1581 cells assessed as inhibition of cell growth at 10 uM incubated for 48 hrs by MTT assay relative to control; assay type: functional; conditions: NCI-H1581, 48 h
NCI-H520 [7] = test: Antiproliferative activity against human NCI-H520 cells incubated for 48 hrs by MTT assay; assay type: functional, cell-based; conditions: NCI-H520, 48 h
NCI-H226 [8] = test: Antiproliferative activity against human NCI-H226 cells assessed as inhibition of cell growth at 10 uM incubated for 48 hrs by MTT assay relative to control; assay type: functional; conditions: NCI-H226, 48 h
PC-9 [9] = test: Antiproliferative activity against human PC9 cells assessed as inhibition of cell growth at 10 uM incubated for 48 hrs by MTT assay relative to control; assay type: functional; conditions: PC-9, 48 h
HCC827 [10] = test: Antiproliferative activity against human HCC827 cells assessed as inhibition of cell growth at 10 uM incubated for 48 hrs by MTT assay relative to control; assay type: functional; conditions: HCC827, 48 h
[11] = target: T2, Fibroblast growth factor receptor 1 (Homo sapiens, UniProt P11362); test: Inhibition of N-terminal GST-tagged human FGFR1 cytoplasmic domain (398-822 AA) expressed in baculovirus at 10 uM using FAM-labelled peptide as substrate pre-incubated for 10 mins followed by substrate addition by mobility shift assay relative to control
Target sequence in this assay (P11362 22-822 limits assumed): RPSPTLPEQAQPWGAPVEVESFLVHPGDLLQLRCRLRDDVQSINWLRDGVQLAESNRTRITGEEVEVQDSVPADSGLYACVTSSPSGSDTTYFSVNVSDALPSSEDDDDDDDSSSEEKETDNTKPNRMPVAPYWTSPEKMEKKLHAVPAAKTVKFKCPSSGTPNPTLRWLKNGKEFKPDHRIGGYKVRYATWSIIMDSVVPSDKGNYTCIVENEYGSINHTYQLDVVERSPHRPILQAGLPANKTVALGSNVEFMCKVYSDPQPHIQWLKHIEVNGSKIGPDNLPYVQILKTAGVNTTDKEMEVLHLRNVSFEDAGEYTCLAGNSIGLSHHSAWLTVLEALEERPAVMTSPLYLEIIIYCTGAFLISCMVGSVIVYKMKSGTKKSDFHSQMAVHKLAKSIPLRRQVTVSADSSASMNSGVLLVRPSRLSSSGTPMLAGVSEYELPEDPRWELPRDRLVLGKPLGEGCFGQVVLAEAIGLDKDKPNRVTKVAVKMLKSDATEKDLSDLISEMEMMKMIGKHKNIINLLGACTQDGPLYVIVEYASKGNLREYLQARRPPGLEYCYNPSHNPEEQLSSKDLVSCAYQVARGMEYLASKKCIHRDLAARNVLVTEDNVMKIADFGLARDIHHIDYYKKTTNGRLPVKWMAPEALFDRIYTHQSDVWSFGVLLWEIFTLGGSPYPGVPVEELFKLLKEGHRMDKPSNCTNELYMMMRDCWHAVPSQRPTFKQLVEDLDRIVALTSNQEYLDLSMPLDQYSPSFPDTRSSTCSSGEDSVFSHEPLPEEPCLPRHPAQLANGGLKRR

[12] = tested on: Epidermal growth factor receptor (Homo sapiens), P00533 [L858R]; test: Inhibition of recombinant human EGFR L858R mutant expressed in baculovirus at 10 uM using FAM-labelled peptide as substrate pre-incubated for 10 mins followed by substrate addition by mobility shift assay relative to control
Epidermal growth factor receptor (Homo sapiens), P00533 [L858R], sequence (P00533 whole entry L858R): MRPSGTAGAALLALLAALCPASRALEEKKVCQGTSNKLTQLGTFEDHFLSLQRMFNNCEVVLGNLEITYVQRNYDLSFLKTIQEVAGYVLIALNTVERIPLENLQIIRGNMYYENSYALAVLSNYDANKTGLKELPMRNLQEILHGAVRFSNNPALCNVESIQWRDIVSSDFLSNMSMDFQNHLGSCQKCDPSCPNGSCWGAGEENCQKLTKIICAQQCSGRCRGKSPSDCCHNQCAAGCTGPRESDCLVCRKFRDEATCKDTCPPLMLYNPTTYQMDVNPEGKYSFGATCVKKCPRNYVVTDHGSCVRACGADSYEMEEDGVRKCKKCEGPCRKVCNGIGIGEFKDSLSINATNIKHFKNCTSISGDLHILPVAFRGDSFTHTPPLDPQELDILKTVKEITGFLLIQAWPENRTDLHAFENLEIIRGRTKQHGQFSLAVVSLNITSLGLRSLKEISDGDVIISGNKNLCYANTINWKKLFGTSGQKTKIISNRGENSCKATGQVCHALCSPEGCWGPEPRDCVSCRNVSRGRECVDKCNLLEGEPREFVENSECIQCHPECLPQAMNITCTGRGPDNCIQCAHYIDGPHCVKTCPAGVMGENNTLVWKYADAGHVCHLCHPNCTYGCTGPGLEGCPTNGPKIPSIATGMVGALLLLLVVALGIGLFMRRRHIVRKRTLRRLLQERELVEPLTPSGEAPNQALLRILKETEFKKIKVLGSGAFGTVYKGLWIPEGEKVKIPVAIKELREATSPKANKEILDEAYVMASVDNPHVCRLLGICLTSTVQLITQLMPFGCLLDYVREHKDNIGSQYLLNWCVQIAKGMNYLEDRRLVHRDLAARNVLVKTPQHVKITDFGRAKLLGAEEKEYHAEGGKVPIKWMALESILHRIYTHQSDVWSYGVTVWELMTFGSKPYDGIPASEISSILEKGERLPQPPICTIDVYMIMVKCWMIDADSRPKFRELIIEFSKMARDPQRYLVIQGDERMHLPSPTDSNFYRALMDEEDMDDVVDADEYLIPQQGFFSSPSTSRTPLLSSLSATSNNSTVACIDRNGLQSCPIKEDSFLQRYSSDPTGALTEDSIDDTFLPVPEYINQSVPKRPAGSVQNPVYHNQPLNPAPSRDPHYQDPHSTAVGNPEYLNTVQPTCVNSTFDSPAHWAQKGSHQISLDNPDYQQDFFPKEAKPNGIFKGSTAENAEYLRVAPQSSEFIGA

NCI-H226 [13] = test: Antiproliferative activity against human NCI-H226 cells incubated for 48 hrs by MTT assay; assay type: functional, cell-based; conditions: NCI-H226, 48 h
NCI-H520 [14] = test: Antiproliferative activity against human NCI-H520 cells assessed as inhibition of cell growth at 10 uM incubated for 48 hrs by MTT assay relative to control; assay type: functional; conditions: NCI-H520, 48 h
[15] = target: Epidermal growth factor receptor (Homo sapiens, UniProt P00533, L858R); test: Inhibition of recombinant human EGFR L858R mutant expressed in baculovirus using FAM-labelled peptide as substrate pre-incubated for 10 mins followed by substrate addition by mobility shift assay
[16] = target: T1, Epidermal growth factor receptor; test: Inhibition of N-terminal GST-tagged human EGFR (d746-750AA) expressed in baculovirus using FAM-labelled peptide as substrate pre-incubated for 10 mins followed by substrate addition by mobility shift assay
[17] = target: T1, Epidermal growth factor receptor; test: Inhibition of N-terminal GST-tagged human EGFR cytoplasmic domain (669-1210 AA) expressed in baculovirus using FAM-labelled peptide as substrate pre-incubated for 10 mins followed by substrate addition by mobility shift assay
[18] = target: T2, Fibroblast growth factor receptor 1; test: Inhibition of N-terminal GST-tagged human FGFR1 cytoplasmic domain (398-822 AA) expressed in baculovirus using FAM-labelled peptide as substrate pre-incubated for 10 mins followed by substrate addition by mobility shift assay
Target sequence in this assay (P11362 whole entry, the tested form may be a part): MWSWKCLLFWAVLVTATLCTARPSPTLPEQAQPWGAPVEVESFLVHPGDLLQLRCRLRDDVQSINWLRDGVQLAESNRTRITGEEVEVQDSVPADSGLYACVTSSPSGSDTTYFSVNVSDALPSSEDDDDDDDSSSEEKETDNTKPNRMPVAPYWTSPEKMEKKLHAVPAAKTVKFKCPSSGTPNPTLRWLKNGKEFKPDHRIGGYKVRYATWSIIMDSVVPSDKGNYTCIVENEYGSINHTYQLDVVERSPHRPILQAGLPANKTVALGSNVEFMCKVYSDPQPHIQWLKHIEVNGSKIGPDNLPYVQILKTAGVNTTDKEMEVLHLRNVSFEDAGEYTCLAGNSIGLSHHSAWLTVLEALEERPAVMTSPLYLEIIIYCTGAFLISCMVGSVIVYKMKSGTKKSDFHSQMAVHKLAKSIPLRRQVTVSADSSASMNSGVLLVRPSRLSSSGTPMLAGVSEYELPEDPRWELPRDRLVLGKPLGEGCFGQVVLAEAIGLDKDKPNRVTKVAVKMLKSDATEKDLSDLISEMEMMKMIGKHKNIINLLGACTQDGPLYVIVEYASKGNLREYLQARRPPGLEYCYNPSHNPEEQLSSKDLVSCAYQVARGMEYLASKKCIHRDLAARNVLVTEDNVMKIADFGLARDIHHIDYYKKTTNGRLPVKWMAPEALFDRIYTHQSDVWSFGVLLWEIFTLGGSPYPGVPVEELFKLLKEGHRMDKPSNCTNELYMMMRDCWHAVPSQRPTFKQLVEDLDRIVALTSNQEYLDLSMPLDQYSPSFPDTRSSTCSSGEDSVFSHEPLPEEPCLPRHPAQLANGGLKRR

[19] = target: T2, Fibroblast growth factor receptor 1; conditions: 10 uM
Target sequence in this assay (P11362 22-822 limits assumed): as the sequence (P11362 22-822 limits assumed) above
Description: Inhibition of FGF-induced FGFR1 phosphorylation in serum-starved human H520 cells at 10 uM incubated for 1 hr by Western blot analysis

[20] = target: T2, Fibroblast growth factor receptor 1; conditions: 10 uM; remark: listed apart in the source
Target sequence in this assay (P11362 22-822 limits assumed): as above
Description: Inhibition of FGFR in serum-starved human H520 cells assessed as reduction in FGFR-induced AKT phosphorylation at 10 uM incubated for 1 hr by Western blot analysis

| Structure (SMILES) | IC50 (PC-9 [1]) [µM] | IC50 (NCI-H1581 [2]) [µM] | inhibition [3] [%] | IC50 (HCC827 [4]) [µM] | inhibition [5] [%] | inhibition at 10 µM (NCI-H1581 [6]) [%] | IC50 (NCI-H520 [7]) [µM] | inhibition at 10 µM (NCI-H226 [8]) [%] | inhibition at 10 µM (PC-9 [9]) [%] | inhibition at 10 µM (HCC827 [10]) [%] | inhibition [11] [%] | inhibition [12] [%] | IC50 (NCI-H226 [13]) [µM] | inhibition at 10 µM (NCI-H520 [14]) [%] | IC50 [15] [µM] | IC50 [16] [µM] | IC50 [17] [µM] | IC50 [18] [µM] | inhibition [19] | inhibition [20] |
| --- | --- | --- | --- | --- | --- | --- | --- | --- | --- | --- | --- | --- | --- | --- | --- | --- | --- | --- | --- | --- |
| COc1cc(NC(=O)Nc2cc(Nc3cc(OC)ccc3OC)ncn2)cc(OC)c1 | 5.92 | 8.39 | 63.3 | 3.24 | 65.7 | 40.7 | 7.52 | 41.1 | 59.5 | 63 | 3.4 | 60 | 7.39 | 34 | – | – | – | – | – | – |
| COc1cc(NC(=O)Nc2cc(Nc3cc(C(F)(F)F)ccc3OC)ncn2)cc(OC)c1 | 6.22 | 7.35 | 74.6 | 15.1 | 54.2 | 67 | 4.45 | 60 | 81.1 | 59.7 | 11 | 73.1 | 14.6 | 63 | – | – | – | – | – | – |
| Cc1cc(F)cc(Nc2cc(NC(=O)Nc3c(Cl)cccc3Cl)ncn2)c1 | 2.79 | 4.78 | 79.2 | 18.6 | 89.7 | 65 | 3.78 | 78.1 | 80 | 49.1 | 70.3 | 91.9 | 2.96 | 60.5 | 0.174 | 0.253 | 0.528 | 1.22 | – | – |
| CCN1CCN(c2ccc(Nc3cc(N(C)C(=O)Nc4c(Cl)c(OC)cc(OC)c4Cl)ncn3)cc2)CC1 [INFIGRATINIB] | – | – | – | – | – | 83.7 | – | 67.3 | 55.5 | 32 | – | – | – | 77.1 | – | – | – | – | Active | Active |
| COc1cc(NC(=O)Nc2cc(Nc3cc(OC)cc(OC)c3)ncn2)cc(OC)c1 | 3.83 | 7.34 | 66.2 | 4.25 | 56.7 | 40.7 | 10.8 | 38.3 | 76.5 | 51.3 | 10.6 | 51.7 | 8.32 | 40.5 | – | – | – | – | – | – |
| COc1ccc(Nc2cc(NC(=O)Nc3c(Cl)cccc3Cl)ncn2)cc1C | – | – | 47.3 | – | 67.4 | 45 | – | 50 | 80.1 | 63.1 | 50.4 | 76.4 | – | 29.1 | – | – | – | – | – | – |
| COc1cc(Nc2cc(NC(=O)Nc3c(Cl)cccc3Cl)ncn2)cc(OC)c1 | 3.18 | 5.32 | 87.3 | 13.3 | 84.2 | 68 | 10.5 | 60 | 90 | 73.7 | 74.2 | 79.4 | 16.9 | 55.5 | 0.49 | 0.332 | 0.315 | 1.1 | – | – |
| COc1cc(NC(=O)Nc2cc(Nc3cc(I)ccc3OC)ncn2)cc(OC)c1 | 3.54 | 8.86 | 58.7 | > 20 | 60.2 | 59 | 9.87 | 56.7 | 91 | 71 | -2.1 | 74 | 19.4 | 55 | – | – | – | – | – | – |
| Cc1ccc(Nc2cc(NC(=O)Nc3c(Cl)cccc3Cl)ncn2)cc1C | – | – | 64.8 | – | 58.6 | 73.3 | – | 41.3 | 92.1 | 84.3 | 45.3 | 63.8 | – | 47.5 | – | – | – | – | – | – |
| COc1cc(NC(=O)Nc2cc(Nc3cc(OC)cc(C(F)(F)F)c3)ncn2)cc(OC)c1 | – | – | 18.5 | – | 27.5 | 50.7 | – | 56 | 88.1 | 57.7 | -1.7 | 48.6 | – | 36.5 | – | – | – | – | – | – |
| COc1cc(Br)ccc1Nc1cc(NC(=O)Nc2c(Cl)cccc2Cl)ncn1 | – | – | 65.6 | – | 75.9 | 47.3 | – | 43 | 90.5 | 42.7 | 12.6 | 83.2 | – | 29.1 | – | – | – | – | – | – |
| CC(C)(C)c1cccc(Nc2cc(NC(=O)Nc3c(Cl)cccc3Cl)ncn2)c1 | – | – | 44.7 | – | 57.4 | 64.3 | – | 36.5 | 87 | 37.3 | 10.7 | 68.4 | – | 29.6 | – | – | – | – | – | – |
| CCc1ccc(Nc2cc(NC(=O)Nc3c(Cl)cccc3Cl)ncn2)cc1 | – | – | 79 | – | 89.2 | 38.1 | – | 39.5 | 70 | 58 | 47.3 | 89.4 | – | 31.5 | – | – | – | – | – | – |
| O=C(Nc1cc(Nc2ccc(F)c(Cl)c2)ncn1)Nc1c(Cl)cccc1Cl | – | – | 94.3 | – | 96.7 | 67 | – | 47.3 | 91.1 | 53.7 | 27.6 | 97 | – | 39.5 | – | – | – | – | – | – |
